The target of assay [1] is T1, galectin-3 (Homo sapiens, UniProt P17931).
T1 construct: purchased IBL IBATGP0414
The assay can be described thus: Galectin-3 activity ELISA assay: inhibition of galectin-3 binding to immobilized Galβ1-3GlcNAc polymer. The conditions noted are these: inhibition of galectin-3 binding to Galβ1-3GlcNAc polymer, average (± standard deviation) where assayed more than once. The text has this:
An inhibition assay may be used to screen for antagonists of galectin-3. For example, an assay may be performed to characterize the capability of a compound described herein to inhibit interaction of galectin-3 with a Galβ1-3GlcNAc carbohydrate structure. The inhibition assay may be a competitive binding assay, which allows the determination of IC50 values. By way of example, a Galβ1-3GlcNAc polymer may be immobilized onto a matrix; a composition may be added to reduce nonspecific binding; the immobilized Galβ1-3GlcNAc polymer may be contacted with the candidate compound in the presence of galectin-3 group under conditions and for a time sufficient to permit galectin-3 to bind to the immobilized Galβ1-3GlcNAc polymer; the immobilized Galβ1-3GlcNAc polymer may be washed; and the amount of galectin-3 bound to the immobilized Galβ1-3GlcNAc polymer may be detected. Variations of such steps can be readily and routinely accomplished by a person of ordinary skill in the art.
Galectin-3 antagonists were evaluated for their ability to inhibit binding of galectin-3 to a Galβ1-3GlcNAc carbohydrate structure. The detailed protocol was as follows. A 1 μg/mL suspension of a Galβ1-3GlcNAcβ1-3Galβ1-4GlcNAcβ-PAA-biotin polymer (Glycotech, catalog number 01-096) was prepared. A 100 μL aliquot of the polymer was added to the wells of a 96-well streptavidin-coated plate (R&D Systems, catalog number CP004). A 100 μL aliquot of 1× Tris Buffered Saline (TBS, Sigma, catalog number T5912-10X) was added to control wells. The polymer was allowed to bind to the streptavidin-coated wells for 1.5 hours at room temperature. The contents of the wells were discarded, and 200 μL of 1×TBS containing 1% bovine serum albumin (BSA) was added to each well as a blocking reagent and the plate was kept at room temperature for 30 minutes. The wells were washed three times with 1×TBS containing 0.1% BSA. A serial dilution of test compounds was prepared in a separate V-bottom plate (Corning, catalog number 3897). A 75 μL aliquot of the highest concentration of the compound to be tested was added to the first well in a column of the V-bottom plate, then 15 μL were serially transferred into 60 μL 1×TBS through the remaining wells in the column to generate a 1 to 5 serial dilution. A 60 μL aliquot of 2 μg/mL galectin-3 (IBL, catalog number IBATGP0414) was added to each well in the V-bottom plate. A 100 μL aliquot of the galectin-3 test compound mixture was transferred from the V-bottom plate into the assay plate containing the Galβ1-3GlcNAc polymer. Four sets of control wells in the assay plate were prepared in duplicate containing 1) both Galβ1-3GlcNAc polymer and galectin-3, 2) neither the polymer nor galectin-3, 3) galectin-3 only, no polymer, or 4) polymer only, no galectin-3. The plate was gently rocked for 1.5 hours at room temperature. The wells were washed four times with TBS/0.1% BSA. A 100 μL aliquot of anti-galectin-3 antibody conjugated to horse radish peroxidase (R&D Systems, from DGAL30 kit) was added to each well, and the plate was kept at room temperature for 1 hour. The wells were washed four times with TBS/0.1% BSA. A 100 μL aliquot of TMB substrate solution was added to each well. The TMB substrate solution was prepared by making a 1:1 mixture of TMB Peroxidase Substrate (KPL, catalog number 5120-0048) and Peroxidase Substrate Solution B (KPL, catalog number 5120-0037). The plate was kept at room temperature for 10 to 20 minutes. The color development was stopped by adding 100 uL 10% phosphoric acid (RICCA Chemical Co., catalog number 5850-16). The absorbance at 450 nm (A450) was measured using a FlexStation 3 plate reader (Molecular Devices). Plots of A450 versus test compound concentration and IC50 determinations were made using GraphPad Prism 6. The number of assays run (n) for each compound is recorded in the following table.

Assay [2] concerns the target T2, carbohydrate recognition domain of human galectin-3 (Galectin-3-CRD) (Homo sapiens, UniProt P17931).
T2 construct: The carbohydrate recognition domain of human galectin-3 (Servesto Galectin-3-CRD) was diluted; purchased Servesto
As to the kind of experiment: Galectin-3 activity microscale thermophoresis assay. It is filed as binding. The conditions noted are these: label-free MST, 20 nM galectin-3-CRD; average of all assays (± standard deviation), each assay in triplicate. As to the method: The carbohydrate recognition domain of human galectin-3 (Servesto Galectin-3-CRD) was diluted with PBS+0.1% F127 to 40 nM. Separately, a 40 uM stock of Compound 45 in DMSO was diluted down to 4 uM in PBS+0.1% F127 and serially diluted in sixteen steps using a dilution factor of 1 to 2 in 10% DMSO+PBS+0.1% F127. To each sample in the serial dilution of Compound 45, 10 ul of 40 nM Galectin-3-CRD was added, yielding final concentrations of 20 nM galectin-3-CRD and 5% DMSO+PBS+0.1% F127. NT.LabelFree Zero background Standard Treated Capillaries were filled with the prepared solutions then loaded into the Monolith NT Label-Free MST instrument. The reaction was measured with 100% excitation power of LED and medium (40%) MST power. Binding curves and Kd values were generated using MO affinity analysis. Each assay was run in triplicate. Some compounds were subjected to more than one assay run in triplicate.
Background: Microscale thermophoresis detects binding through changes in fluorescence in a small temperature gradient.

T2 sequence (P17931 118-248 limits assumed): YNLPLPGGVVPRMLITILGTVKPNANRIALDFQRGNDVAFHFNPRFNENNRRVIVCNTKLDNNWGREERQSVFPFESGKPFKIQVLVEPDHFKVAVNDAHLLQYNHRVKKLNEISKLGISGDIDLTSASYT
T1 sequence (P17931 whole entry): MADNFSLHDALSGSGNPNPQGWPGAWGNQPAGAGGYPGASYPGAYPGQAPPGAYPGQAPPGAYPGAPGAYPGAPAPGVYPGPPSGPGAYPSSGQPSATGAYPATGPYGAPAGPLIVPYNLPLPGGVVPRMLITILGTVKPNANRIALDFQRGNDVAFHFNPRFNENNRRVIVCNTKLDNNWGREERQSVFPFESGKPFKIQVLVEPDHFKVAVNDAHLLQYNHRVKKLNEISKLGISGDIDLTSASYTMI

One may read the IC50 as the point on the concentration scale where inhibition reaches its midpoint. Higher therefore signals lower potency. In general, Kd refers to the equilibrium constant for the complex coming apart. A higher Kd goes with a looser complex. In assay [1], `[2H]C([2H])([2H])OC1C(n2cc(-c3cc(F)c(F)c(F)c3)nn2)[C@@H](O)C(CO)O[C@H]1[C@H](OCc1ccc(Br)c(F)c1)C(=O)NC(C)C` (stereo partly drawn) [Compound 61] gave a half-maximal inhibitory concentration (IC50) of 771 nM. The dissociation constant (Kd) in assay [2] was found to be 10 nM.

`COC1C(n2cc(-c3cc(F)c(F)c(F)c3)nn2)[C@@H](O)C(CO)O[C@H]1[C@H](OCc1ccc(Br)cc1)C(=O)N[C@@H](C)C(F)(F)F` (stereo partly drawn) [Compound 73] yielded an IC50 in assay [1] of 182 nM. Moreover, in assay [2], the Kd is 8 nM.

`COCCCN(C)C(=O)[C@@H](OCc1ccc(Br)cc1)[C@@H]1OC(CO)[C@H](O)C(n2cc(-c3cc(F)cc(F)c3)nn2)C1OC` (stereo partly drawn) [Compound 22] yielded a concentration for half-maximal inhibition (IC50) in assay [1] of 1490 nM. In assay [2], this molecule registered a Kd of 83 nM.

In assay [1], `COC1C(n2cc(-c3cc(F)c(F)c(F)c3)nn2)[C@@H](O)C(CO)O[C@H]1[C@H](OCc1ccc(Br)cc1)C(=O)NC(CF)CF` (stereo partly drawn) [Compound 72] registered an IC50 of 197 nM. The Kd in assay [2] came to 9 nM.

`COCCCNC(=O)[C@@H](OCc1ccc(Cl)cc1)[C@@H]1OC(CO)[C@H](O)C(n2cc(-c3cc(F)c(F)c(F)c3)nn2)C1OC` (stereo partly drawn) [Compound 85, reference compound]: in assay [1], the 50% inhibitory concentration (IC50) turned out to be 397 nM. Moreover, in assay [2], the Kd was determined as 12 nM.

With `COC1C(n2cc(-c3cc(F)c(F)c(F)c3)nn2)[C@@H](O)C(CO)O[C@H]1[C@H](OCc1ccc(Br)cc1)C(=O)NC1CC1` (stereo partly drawn) [Compound 49], the IC50 in assay [1] is 116 nM. This molecule came in with a Kd in assay [2] of 18 nM.

With `CC(C)OC(=O)[C@@H](OCc1ccc(Br)cc1)[C@@H]1OC(CO)[C@H](O)C(n2cc(-c3cc(F)c(F)c(F)c3)nn2)C1O` (stereo partly drawn) [Compound 27], in assay [1], the IC50 turned out to be 173 nM. In assay [2], this molecule yielded a Kd of 26 nM.

Regarding `[2H]C([2H])([2H])OC1C(n2cc(-c3cc(F)c(F)c(F)c3)nn2)[C@@H](O)C(CO)O[C@H]1[C@H](OCc1ccc(Br)cc1)C(=O)NC1CC1` (stereo partly drawn) [Compound 47], the IC50 in assay [1] was determined as 408 nM. This molecule gave a Kd in assay [2] of 11 nM.

Molecule `[2H]C([2H])([2H])OC1C(n2cc(-c3cc(F)c(F)c(F)c3)nn2)[C@@H](O)C(CO)O[C@H]1[C@H](OCc1ccc(Cl)cc1)C(=O)NC(C)C` (stereo partly drawn) [Compound 88, reference compound] yielded a 50% inhibitory concentration (IC50) in assay [1] of 416 nM. This molecule also gave a Kd in assay [2] of 67 nM.

As for `[2H]C([2H])([2H])OC1C(n2cc(-c3cc(F)c(F)c(F)c3)nn2)[C@@H](O)C(CO)O[C@H]1[C@H](OCc1ccc(Br)cc1)C(=O)NC(C)(C)C` (stereo partly drawn) [Compound 48], the half-inhibitory concentration (IC50) in assay [1] stood at 972 nM. In assay [2], this molecule displayed a dissociation constant Kd of 46 nM.

For `[2H]C([2H])([2H])OC1C(n2cc(-c3cc(F)c(F)c(F)c3)nn2)[C@@H](O)C(CO)O[C@H]1[C@H](OCc1ccc(Br)cc1)C(=O)NC1CCC1` (stereo partly drawn) [Compound 67], the IC50 in assay [1] is 153 nM. Besides, in assay [2], the Kd stood at 2.2 nM.

For the molecule `CNC(=O)[C@@H](OCc1ccc(Br)cc1)[C@@H]1OC(CO)[C@H](O)C(n2cc(-c3cc(F)c(F)c(F)c3)nn2)C1OC` (stereo partly drawn) [Compound 19], in assay [1], the IC50 was 448 nM. The equilibrium dissociation constant (Kd) in assay [2] worked out at 23 nM.

Take `[2H]C([2H])([2H])OC1C(n2cc(-c3cc(F)c(F)c(F)c3)nn2)[C@@H](O)C(CO)O[C@H]1[C@H](OCc1ccc(Br)cc1)C(=O)NC([2H])(C([2H])([2H])[2H])C([2H])([2H])[2H]` (stereo partly drawn) [Compound 46]: the IC50 in assay [1] came out at 228 nM. In assay [2], this molecule showed a Kd of 2.9 nM.

For `CCNC(=O)[C@@H](OCc1ccc(Br)cc1)[C@@H]1OC(CO)[C@H](O)C(n2cc(-c3cc(F)c(F)c(F)c3)nn2)C1OC` (stereo partly drawn) [Compound 69], the IC50 in assay [1] worked out at 269 nM. The molecule further showed a Kd in assay [2] of 32 nM.

Turning to `COC1C(n2cc(-c3cc(F)c(F)c(F)c3)nn2)[C@@H](O)C(CO)O[C@H]1[C@H](OCc1ccc(Br)cc1)C(=O)N[C@@H](C)CF` (stereo partly drawn) [Compound 71], in assay [1], the half-maximal inhibitory concentration (IC50) stood at 526 nM. In assay [2], the Kd is 9 nM.
